Data as given in patent publication US9677109B2, “Rapid determination of microbial growth and antimicrobial susceptibility” (priority 2013, dated 2017).

What was measured:
[1] = tested on: Pseudomonas aeruginosa (PSAE); test: MADM resistance phenotype test, respiratory specimens; type: cell-based; conditions: for MADM resistance phenotype: PSAE
Protocol: (§1) (ABCC). Concurrent quantitative culture (qCx) was performed on specimens.
(§2) 20 μL samples of prepared specimen were pipetted into independent flowcell channels and a low-voltage electrical field was applied for 5 minutes. The electrical field concentrated bacteria onto a functional surface coating that immobilized the bacteria on the lower flowcell surface. Each flowcell channel received only one type of test reagent solution that contained a selective agent if required (only for channels used to test AB, sulbactam 32 μg/mL).
(§3) The instrument acquired images at 10-minutes intervals for 180 minutes, using 10 fields of view in each flowcell channel through a 20× objective. Imaging used darkfield illumination. Identification variables included response to selective agents (AB with sulbactam), cell morphology, growth morphology, and growth rate.
(§4) Identification algorithms applied to each individual immobilized bacterial cell. The system measured the amount of change in mass over time to compute growth rates. Identification consisted of computing and combining probability scores for morphology, response to selective media, and growth rates to produce a receiver operating characteristic curve (ROC) to derive classification criteria.

[2] = tested on: Pseudomonas aeruginosa (PSAE); test: Culture (Cx) susceptibility result, respiratory specimens; type: cell-based
Protocol: (§5) DHMC specimens were 7-21 days old. […] Controls used standard culturing methods (Cx).
as §1

[3] = tested on: Acinetobacter spp. (ABCC); test: as above; type: cell-based, Acinetobacter sp.; conditions: ABCC specimen (specimen id not given)
Protocol: as §5, §1

[4] = tested on: Acinetobacter spp. (ABCC); test: MADM resistance phenotype test, respiratory specimens; type: cell-based, Acinetobacter sp.; conditions: for MADM resistance phenotype: ABCC specimen (specimen id not given)
[5] = tested on: heat-killed cells and isopropyl alcohol killed cells; test: CFDA/CFDA-SE esterase fluorescence in killed cells; type: cell-based; conditions: two hour post-heat-kill delay
Excerpt: Carboxyfluorescein diacetate/carboxyfluorescein diacetate succinimidyl ester (CFDA/CFDA-SE; Molecular Probes) compounds are converted into amine-reactive fluorescent molecules when cleaved by esterases present within active cells. When CFDA-SE is taken up by live cells, the fluorescent molecule produced by esterase cleavage and amine reaction is retained inside the cell. […] The product formed by uptake and processing of CFDA, on the other hand, should be more “leaky” over time and may exit a dead cell. […] Shorter delay times have not yet been investigated but may be compatible with avoiding false positive results while providing a shorter assay period.

[6] = tested on: E. coli; test: DiBAC4(3) membrane potential staining; type: cell-based; conditions: heat-killed E. coli, 10 g/ml DiBAC4(3), 15 min at room temp
Protocol: DiBAC4(3) (Molecular Probes) is an anionic dye that enters depolarized cells (i.e., cells lacking a membrane potential) and fluoresces in the […] channel when it binds to intracellular proteins or membranes. Using this indicator, 18.5% of an overnight refrigerator stock (control) and 95% of heat-killed E. coli stained with 10 µg/ml DiBAC4(3) after a 15 min incubation period at room temp.

[7] = tested on: Staphylococcus aureus (STAU); test: MADM resistance phenotype test, respiratory specimens; type: cell-based
Protocol: as §1, §2, §3, §4

[8] = tested on: Staphylococcus aureus (STAU); test: Culture (Cx) susceptibility result, respiratory specimens; type: cell-based; also: key: S: susceptible; R: resistant
Protocol: as §5, §1

[9] = tested on: S. aureus; test: 2-NBDG uptake fluorescence labeling; type: cell-based; conditions: overnight refrigerator culture, viability verified
Excerpt: (§6) 2-NBDG (Molecular Probes) is a fluorescent derivative (green channel) of D-glucose that is internalized by active bacteria.

[10] = tested on: K. pneumoniae; test: 2-NBDG uptake fluorescence labeling; type: cell-based; conditions: overnight refrigerator stock, approximately 1 min, 1 μM 2-NBDG
Excerpt: as §6

[11] = tested on: H. influenzae; test: 2-NBDG uptake fluorescence labeling; type: cell-based; conditions: overnight refrigerator culture, viability verified
Excerpt: as §6

[12] = tested on: E. coli; test: 2-NBDG uptake fluorescence labeling; type: cell-based; conditions: overnight refrigerator stock, approximately 1 min, 1 μM 2-NBDG
Excerpt: as §6

[13] = tested on: S. maltophilia (Steno); test: MADM (BACcel) growth analysis sensitivity, surveillance mini-BAL; type: cell-based
Protocol: (§7) Adult MICU patients with identified surrogate were included within 72 hours of intubation and if anticipated to require MV for >48 h. Moribund state or pregnancy were exclusions. Surveillance mini-BAL (Combicath, Plastimed) was performed on Day 1, 3, 5, 7 and 10 of MV. Samples were split and processed for both a) routine respiratory quantitative microbiological culture and sensitivity assays (>48 h result availability) and b) rapid (<8 h) flowcell/surface-capture assays using the MADM system. Viable microorganisms were identified using growth analysis enhanced by a focused VAP antibody panel (S. aureus, P. aeruginosa, A. baumannii). Untypable organisms were also reported. Sensitivity was assessed using growth analysis. Attending physicians were blinded to MADM system results.
(§8) BAL sample were prepared, removing debris and separating microorganisms from other sample material. Sample microorganisms were introduced into a multichannel fluidic cassette as described elsewhere herein. Bacteria were concentrated and retained on the lower surface of all flowcells using low-voltage electrical field (5 min). Antibody labeling of bacteria in flowcells was used to aid identification.
(§9) The automated digital microscopy system was used to perform darkfield imaging of 10 fields of view every 10 minutes for 180 minutes in each flowcell channel. Initial epifluorescence imaging was also performed for antibody detection. […] Identification consisted of probability scores based on microorganism morphology and growth rates. Antibody labeling identification data was also incorporated. Observed microorganisms were then classified as STAU, PSAE, or non-target. Antibiotic responses were used to aid identification when appropriate. Quantitation was performed by counting identified microorganism and computing original specimen CFU/mL.

[14] = tested on: Klebsiella pneumoniae (KP); test: MADM ertapenem nonsusceptibility / KPC assay; type: cell-based
Protocol: We adapted a commercial inverted microscope and camera with custom image analysis software and a purpose-built 32-channel disposable fluidic cassette (FIG. 4A). Cassette flowcells (FIG. 4B) had transparent top and bottom surfaces to allow microscope imaging. The bottom surface was coated with poly-L-lysine to immobilize live bacteria.
We grew isolates on blood agar, suspended colonies in tryptic soy broth for 2 hours, then centrifuged and resuspended log-phase bacteria in low ionic strength electrokinetic buffer.
MADM system analysis was performed using a 32-channel disposable fluidic cassette (FIG. 4A) to measure growth of immobilized bacteria. We separately tested PA clinical isolates for nonsusceptibility (NS) with amikacin (AN) at 32 μg/mL, and AB isolates with imipenem (IMP) at 8 μg/mL or ceftazidime (CAZ) at 8 μg/mL.
10 μL aliquots of 5E+7 CFU/mL were pipetted into separate flowcells for each isolate and test condition. Microorganisms were electrokinetically concentrated onto the flowcell detection surface with an electrical field to the positively charged lower surface to immobilize cells and yield 10-100 bacteria per field of view (FIG. 4B). […] The system measured growth at 10-minute intervals. […] Growth was evaluated, interpreting results for PA, AB, and KP-ETP as NS if growth had not arrested within 3 hours. […]

[15] = tested on: damaged membranes; test: Propidium iodide membrane integrity staining; type: cell-based; conditions: compared with YO-PRO-1
Excerpt: Propidium iodide (PI; Sigma) is another red fluorescent DNA-intercalcater that penetrates damaged membranes but not intact membranes.

[16] = tested on: E. coli; test: Plasmolysis (cell size response to osmotic pressure); type: cell-based; conditions: exposed to 0.9% NaCl
Excerpt: Plasmolysis is a method of detecting membrane integrity by exposing cells to a very hypertonic solution, such as may be performed by subjecting a cell to osmotic pressure by manipulating the concentration of a solute, for example, sodium chloride.

[17] = tested on: Enteric; test: MADM (BACcel) growth analysis sensitivity, surveillance mini-BAL; type: cell-based; conditions: specimen 005-D7, BACcel ID Enteric, 1.26 × 10^5 CFU/ml
Protocol: as §7, §8, §9

[18] = specimen 006-D1, BACcel ID Steno, 7.68 × 10^5 CFU/ml
[19] = specimen 006-D3, BACcel ID Steno, 1.60 × 10^4 CFU/ml

C[C@@H](O)[C@H]1C(=O)N2C(C(=O)O)=C(SCCN=CN)C[C@H]12 [IMP, imipenem]
MADM resistance phenotype ([1]; specimen DH 430, Mini-BAL): S | MADM resistance phenotype ([1]; specimen DH 554, BAL): S | MADM resistance phenotype ([1]; specimen DH 641, Mini-BAL): S | Cx (culture result) susceptibility ([2]; specimen DH 430, Mini-BAL): S | Cx (culture result) susceptibility ([2]; specimen DH 554, BAL): S | Cx (culture result) susceptibility ([2]; specimen DH 641, Mini-BAL): S | Cx (culture result) susceptibility [3]: S | MADM resistance phenotype [4]: S

carboxyfluorescein diacetate succinimidyl ester [CFDA-SE]
fluorescence [5]: no fluorescence was observed

CCCCN1C(=O)C(=CC=Cc2c(O)n(CCCC)c(=O)n(CCCC)c2=O)C(=O)N(CCCC)C1=O [DiBAC4(3)]
cells stained [6]: 95%

CCC[C@@H]1C[C@@H](C(=O)N[C@@H]([C@H]2O[C@H](SC)[C@H](O)[C@@H](O)[C@H]2O)[C@H](C)Cl)N(C)C1 [CLI, clindamycin]
MADM resistance phenotype ([7]; specimen DH 425, Mini-BAL): S | MADM resistance phenotype ([7]; specimen DH 427, Mini-BAL): S | MADM resistance phenotype ([7]; specimen DH 439, Mini-BAL): S | MADM resistance phenotype ([7]; specimen DH 440, BAL): S | MADM resistance phenotype ([7]; specimen DH 457, BAL): S | MADM resistance phenotype ([7]; specimen DH 485, BAL): S | MADM resistance phenotype ([7]; specimen DH 509, BAL): S | MADM resistance phenotype ([7]; specimen DH 514, Mini-BAL): S | MADM resistance phenotype ([7]; specimen DH 543, BAL): S | MADM resistance phenotype ([7]; specimen DH 550, BAL): S | MADM resistance phenotype ([7]; specimen DH 556, Mini-BAL): S | MADM resistance phenotype ([7]; specimen T12, ETA): S | Cx (culture result) susceptibility ([8]; specimen DH 425, Mini-BAL): S | Cx (culture result) susceptibility ([8]; specimen DH 427, Mini-BAL): S | Cx (culture result) susceptibility ([8]; specimen DH 439, Mini-BAL): S | Cx (culture result) susceptibility ([8]; specimen DH 440, BAL): S | Cx (culture result) susceptibility ([8]; specimen DH 457, BAL): S | Cx (culture result) susceptibility ([8]; specimen DH 485, BAL): S | Cx (culture result) susceptibility ([8]; specimen DH 509, BAL): S | Cx (culture result) susceptibility ([8]; specimen DH 514, Mini-BAL): S | Cx (culture result) susceptibility ([8]; specimen DH 543, BAL): S | Cx (culture result) susceptibility ([8]; specimen DH 550, BAL): S | Cx (culture result) susceptibility ([8]; specimen DH 556, Mini-BAL): S | Cx (culture result) susceptibility ([8]; specimen T12, ETA): S

O=[N+]([O-])c1ccc(N[C@H]2C(O)O[C@H](CO)[C@@H](O)[C@@H]2O)c2nonc12 (stereo partly drawn) [2-NBDG]
fluorescent labeling [9]: did not fluoresce | fluorescent labeling [10]: fluorescently labeled | fluorescent labeling [11]: did not fluoresce | fluorescent labeling [12]: fluorescently labeled

Cc1onc(-c2ccccc2)c1C(=O)N[C@@H]1C(=O)N2[C@@H]1SC(C)(C)[C@@H]2C(=O)O [OXA, oxacillin]
Cx (culture result) susceptibility ([8]; specimen DH 425, Mini-BAL): S | Cx (culture result) susceptibility ([8]; specimen DH 427, Mini-BAL): S | Cx (culture result) susceptibility ([8]; specimen DH 439, Mini-BAL): R | Cx (culture result) susceptibility ([8]; specimen DH 440, BAL): S | Cx (culture result) susceptibility ([8]; specimen DH 457, BAL): S | Cx (culture result) susceptibility ([8]; specimen DH 485, BAL): S | Cx (culture result) susceptibility ([8]; specimen DH 509, BAL): S | Cx (culture result) susceptibility ([8]; specimen DH 514, Mini-BAL): S | Cx (culture result) susceptibility ([8]; specimen DH 543, BAL): S | Cx (culture result) susceptibility ([8]; specimen DH 550, BAL): S | Cx (culture result) susceptibility ([8]; specimen DH 556, Mini-BAL): S | Cx (culture result) susceptibility ([8]; specimen T12, ETA): R

NCC[C@H](O)C(=O)N[C@@H]1C[C@H](N)[C@@H](O[C@H]2O[C@H](CN)[C@@H](O)[C@H](O)[C@H]2O)[C@H](O)[C@H]1O[C@H]1O[C@H](CO)[C@@H](O)[C@H](N)[C@H]1O [AN, amikacin]
susceptibility ([1]; all PSAE-containing specimens): susceptible | MADM resistance phenotype ([1]; specimen DH 430, Mini-BAL): S | MADM resistance phenotype ([1]; specimen DH 554, BAL): S | MADM resistance phenotype ([1]; specimen DH 641, Mini-BAL): S | Cx (culture result) susceptibility ([2]; specimen DH 430, Mini-BAL): S | Cx (culture result) susceptibility ([2]; specimen DH 554, BAL): S | Cx (culture result) susceptibility ([2]; specimen DH 641, Mini-BAL): S | Phenotype, sensitivity [13, 18]: growth, TZP- | Phenotype, sensitivity [13, 19]: growth, TZP- | MADM resistance phenotype [4]: S | susceptibility ([4]; all ABCC-containing specimens): susceptible

C[C@@H](O)[C@H]1C(=O)N2C(C(=O)O)=C(S[C@@H]3CN[C@H](C(=O)Nc4cccc(C(=O)O)c4)C3)[C@H](C)[C@H]12 [ETP, ertapenem]
growth of susceptible strains ([14]; ETP at 16 μg/mL, FIG. 20): fail to grow | growth morphology ([14]; ETP exposure, KPC clinical isolate, FIG. 19): abnormal growth morphology

CC[N+](C)(CC)CCC[n+]1c(-c2ccccc2)c2cc(N)ccc2c2ccc(N)cc21.[I-].[I-] [PI, Propidium iodide]
fluorescent signal intensity vs. background [15]: not as high as for YO-PRO-1

[Cl-].[Na+] [NaCl, sodium chloride]
cells that did not exhibit a response ([16]; heat killed cells): 90% | cells decreasing in size ([16]; overnight refrigerator stock cultures): 77%

CC(C)(O/N=C(\C(=O)N[C@@H]1C(=O)N2C(C(=O)[O-])=C(C[n+]3ccccc3)CS[C@H]12)c1csc(N)n1)C(=O)O [CAZ, ceftazidime]
Phenotype, sensitivity [13, 18]: growth, TZP- | Phenotype, sensitivity [13, 19]: growth, TZP- | Phenotype, sensitivity [17]: all growth
